{"source": "patent US20250090530A1", "about": "“COMBINATIONS FOR THE TREATMENT OF CANCER” (Terns Pharmaceuticals, Inc., priority 2023, published 2025)", "key": {"[1]": {"system": "BaF3BCR-ABL-T315I", "assay": "Fixed molar combinations, curve shift and isobologram analyses", "type": "cell-based", "settings": "72 hours"}, "[2]": {"system": "Ku812", "assay": "Fixed molar combinations with active site TKIs, curve shift and isobologram analyses (CellTiter-Glo viability)", "type": "cell-based"}, "[3]": {"system": "BaF3-BCR-ABL-T315I", "assay": "Expanded combination matrix, excess over Bliss", "type": "cell-based", "settings": "72 hours"}, "[4]": {"system": "K562", "assay": "Fixed molar combinations with active site TKIs, curve shift and isobologram analyses (CellTiter-Glo viability)", "type": "cell-based"}, "[5]": {"system": "Ku812", "assay": "Expanded combination matrix, BLISS synergy (CellTiter-Glo viability)", "type": "cell-based"}, "[6]": {"system": "kinase panel", "assay": "In vitro kinase panel (substrate phosphorylation assays)", "type": "biochemical", "settings": "at 1 μM"}, "[7]": {"system": "K562", "assay": "Expanded combination matrix, BLISS synergy (CellTiter-Glo viability)", "type": "cell-based"}}, "data": [{"smiles": "O=C(Nc1ccc(OC(F)(F)Cl)cc1)c1cnc(N2CC[C@@H](O)C2)c(-c2cc[nH]n2)c1", "note": "[Asciminib, asciminib]", "values": [{"measurement": "Conclusion (synergy by curve shift and isobologram analyses)", "setting": "[1]; Reference dasatinib", "result": "synergy"}, {"measurement": "Conclusion (synergy by curve shift and isobologram analyses)", "setting": "[1]; Reference flumatinib", "result": "no synergy"}, {"measurement": "Conclusion (synergy by curve shift and isobologram analyses)", "setting": "[1]; Reference nilotinib", "result": "no synergy"}, {"measurement": "Summary of Observations (synergy by curve shift and isobologram analyses)", "setting": "[2]; combination partner Dasatinib", "result": "Additivity"}, {"measurement": "Summary of Observations (synergy by curve shift and isobologram analyses)", "setting": "[2]; combination partner Imatinib", "result": "Additivity"}, {"measurement": "Summary of Observations (synergy by curve shift and isobologram analyses)", "setting": "[2]; combination partner Ponatinib", "result": "Additivity"}, {"measurement": "Excess over Bliss score sum", "setting": "[3]; Compound 2 dasatinib", "result": 3.19}, {"measurement": "Highest excess over Bliss score", "setting": "[3]; Compound 2 dasatinib", "result": 0.27}, {"measurement": "Excess over Bliss score sum", "setting": "[3]; Compound 2 flumatinib", "result": 0.81}, {"measurement": "Highest excess over Bliss score", "setting": "[3]; Compound 2 flumatinib", "result": 0.15}, {"measurement": "Excess over Bliss score sum", "setting": "[3]; Compound 2 imatinib", "result": 1.29}, {"measurement": "Highest excess over Bliss score", "setting": "[3]; Compound 2 imatinib", "result": 0.15}, {"measurement": "Excess over Bliss score sum", "setting": "[3]; Compound 2 nilotinib", "result": 0.36}, {"measurement": "Highest excess over Bliss score", "setting": "[3]; Compound 2 nilotinib", "result": 0.05}, {"measurement": "Excess over Bliss score sum", "setting": "[3]; Compound 2 ponatinib", "result": 0.83}, {"measurement": "Highest excess over Bliss score", "setting": "[3]; Compound 2 ponatinib", "result": 0.14}, {"measurement": "Summary of Observations (synergy by curve shift and isobologram analyses)", "setting": "[4]; combination partner Dasatinib", "result": "Synergy at IC90"}, {"measurement": "Summary of Observations (synergy by curve shift and isobologram analyses)", "setting": "[4]; combination partner Imatinib", "result": "Synergy at IC75 and IC90"}, {"measurement": "Summary of Observations (synergy by curve shift and isobologram analyses)", "setting": "[4]; combination partner Ponatinib", "result": "Synergy at IC75 and IC90"}]}, {"smiles": "C[C@H](CO)n1c(C(F)F)nc2cc(C(=O)Nc3ccc(OC(F)(F)Cl)cc3)cc(-c3cncnc3)c21", "note": "[Compound A, (R)—N-(4-(chlorodifluoromethoxy)phenyl)-2-(difluoromethyl)-1-(1-hydroxypropan-2-yl)-7-(pyrimidin-5-yl)-1H-benzo[d]imidazole-5-carboxamide]", "values": [{"measurement": "Strongest BLISS score", "setting": "[5]; combination partner Dasatinib", "result": 0.08}, {"measurement": "Summary of Observations (BLISS synergy)", "setting": "[5]; combination partner Dasatinib", "result": "Weak synergy observed"}, {"measurement": "Strongest BLISS score", "setting": "[5]; combination partner Imatinib", "result": 0.05}, {"measurement": "Summary of Observations (BLISS synergy)", "setting": "[5]; combination partner Imatinib", "result": "Weak synergy observed"}, {"measurement": "Strongest BLISS score", "setting": "[5]; combination partner Ponatinib", "result": 0.07}, {"measurement": "Summary of Observations (BLISS synergy)", "setting": "[5]; combination partner Ponatinib", "result": "Weak synergy observed"}, {"measurement": "Inhibition of any kinase in in vitro kinase panel", "setting": "[6]", "result": "≤ 50", "unit": "%"}, {"measurement": "Interaction in in vitro combination studies", "setting": "[2]; with multiple TKIs", "result": "at least additively"}, {"measurement": "Strongest BLISS score", "setting": "[7]; combination partner Dasatinib", "result": 0.16}, {"measurement": "Summary of Observations (BLISS synergy)", "setting": "[7]; combination partner Dasatinib", "result": "BLISS synergy"}, {"measurement": "Strongest BLISS score", "setting": "[7]; combination partner Imatinib", "result": 0.12}, {"measurement": "Summary of Observations (BLISS synergy)", "setting": "[7]; combination partner Imatinib", "result": "BLISS synergy"}, {"measurement": "Strongest BLISS score", "setting": "[7]; combination partner Ponatinib", "result": 0.17}, {"measurement": "Summary of Observations (BLISS synergy)", "setting": "[7]; combination partner Ponatinib", "result": "BLISS synergy"}, {"measurement": "Interaction in in vitro combination studies", "setting": "[4]; with multiple TKIs", "result": "works synergistically"}]}]}
